# According to patent US9271946B2, “Use of a RAR antagonist or inverse agonist for the treatment of chemotherapy and/or radiation therapy side effects” (IO Therapeutics, Inc., priority 2006, dated 2016):
# Tests used:
# RARγ = molecular target: T1, RARγ (Homo sapiens, UniProt P13631); assay: binding to RARγ
# T1 sequence (P13631 1-454): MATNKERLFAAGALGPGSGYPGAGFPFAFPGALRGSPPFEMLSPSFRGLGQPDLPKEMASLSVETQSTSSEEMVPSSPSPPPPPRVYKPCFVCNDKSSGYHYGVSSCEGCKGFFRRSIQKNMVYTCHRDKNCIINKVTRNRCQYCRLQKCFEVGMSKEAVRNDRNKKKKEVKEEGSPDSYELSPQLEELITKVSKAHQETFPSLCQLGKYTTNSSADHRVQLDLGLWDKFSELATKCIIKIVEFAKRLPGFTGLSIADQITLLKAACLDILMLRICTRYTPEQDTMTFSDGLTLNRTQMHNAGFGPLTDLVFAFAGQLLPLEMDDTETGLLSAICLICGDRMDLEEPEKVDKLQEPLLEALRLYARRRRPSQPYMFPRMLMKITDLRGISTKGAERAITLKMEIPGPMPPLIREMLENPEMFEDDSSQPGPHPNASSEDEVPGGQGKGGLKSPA
# RAR = assay: transactivation assays; assay type: cell-based
# Description: An assay that can be used to determine the agonist activity in the RARα, RARβ and RARγ receptor subtypes is described in Feigner, P. L., and Holm, M., FOCUS, 11:2, 21+ (1989) and U.S. Pat. Nos. 5,455,265 and 7,166,726, all of which are incorporated herein by reference in their entirety.
# [1] = system: CPM-induced leukopenic male BDF1 mice; assay: cyclophosphamide-induced mouse model of leukopenia, blood cell recovery (Example 1); assay type: in vivo; conditions: for lymphocyte counts: mean±SEM
# Description: Mice purchased from Charles River Laboratories (Wilmington, Mass.) were housed individually in micro-isolater cages in a 12-hour light/dark cycle. They were housed under pathogen-free conditions, and received a normal standard diet and water ad libitum. They were acclimated for one week at the Association for Assessment and Accreditation of Laboratory Animal Care (AAALAC) accredited animal facility (Allergan Inc., Irvine, Calif.) prior to experiments. Study designs were approved by the Institutional Animal Care and Use Committee. Body weights were monitored throughout each study. Weight of the mice was in the range of 22-27 g at the day of treatment initiation. The mice were healthy, not previously used in other experimental procedures.
# (§1) Leukopenia was induced in male BDF1 mice (C57Bl×DBA2, 7.5-12 weeks) by an intra-peritoneal (i.p.) injection of 200 mg/kg Cyclophosphamide (CPM, Sigma-Aldrich, Saint Louis, Mo.) in 0.2 ml saline. The effect of VTP 194310 on leukocyte recovery was evaluated by oral gavage of animals with 1 mg/kg of VTP 194310 as indicated in the results section. VTP 194310 (dissolved in DMSO) was diluted through peanut oil as the vehicle (dosed at 5 ml/kg). Control mice were given DMSO and vehicle alone. As a positive control, granulocytopoiesis was stimulated in CPM-treated mice by a single sub-cutaneous injection of 10 μg/kg pegylated recombinant methionyl human granulocyte colony-stimulating factor (PEG-r-metHuG-CSF) (Neulasta, Pegfilgrastim; Amgen, Thousand Oaks, Calif.) on day 2. Three separate experiments were performed.
# (§2) Peripheral blood (60 μl) was collected under anaesthesia from the retroorbital sinus of the mice with heparinized capillary tubes and transferred to EDTA-coated microtainer tubes (Becton Dickinson, Franklin Lakes, N.J.). White cell, neutrophil, and lymphocyte counts were obtained for at least three mice per group by diluting the blood 1:4 with PBS containing 5% bovine serum albumin (Fraction V; Sigma, Saint Louis, Mo.), and by using an Advia 120 Hematology System (Bayer HealthCare Diagnostics Division, Tarrytown, N.Y.).
# [2] = system: CPM-induced leukopenic mice; assay: peripheral and systemic neutrophil recovery in CPM-induced leukopenic mice, spleen and bone marrow (Example 2); assay type: in vivo, mouse
# Method: as §1, §2
# Immature (Gr-1^low/CD11b^+ve) and mature (Gr-1^+ve/CD11b^+ve) neutrophils were identified in single cells suspensions prepared from spleen and bone marrow (femur) aspirates by double immunostaining using PE- and FITC-conjugated monoclonal antibodies (Pharmingen, San Diego, Calif.). Cells were analysed on a FACS Calibur interfaced with CellQuest Pro software program (Becton Dickinson, San Jose, Calif.).
# These mice were gavaged with VTP 194310 on days −1 to 2 in relation to CPM treatment.
# S. aureus EMRSA-16 252 = assay: activity against S. aureus, growth on agar and in liquid culture; assay type: cell-based
# Method: (§3) The compound was analyzed at an appropriate concentration in several assays for activity against S. aureus EMRSA-16 252 and S. aureus MSSA 476.
# S. aureus MSSA 476 = assay: as above; assay type: cell-based
# Method: as §3
# [3] = system: 5-FU-induced neutropenic male BDF1 mice; assay: monotherapy and combination therapy on neutrophil recovery in 5-FU-induced neutropenic mice (Example 5); assay type: in vivo, mouse
# Method: VTP194310 DMSO Stock solution was made by weighing out VTP194310 and dissolving it in DMSO (25 mg/1.33 ml DMSO).
# The Vehicle solution was made by mixing 39.2 ml Corn Oil+0.8 ml DMSO.
# The 3.0 mg/kg VTP194310 solution was made by mixing 39.2 ml Corn Oil+0.8 ml VTP 194310 DMSO Stock solution.
# The 150 mg/kg 5-FU solution was made by weighing out 187.5 mg 5-FU and mixing it with 10 g saline.
# The 10 μg/kg PEG-G-CSF solution was made by diluting 6 mg/ml stock with PBS.
# Male BDF1 mice (C57Bl×DBA2), 9 weeks old, DOB: 26 Jun. 2006) were used in this experiment.
# Each group of mice were treated with 150 mg/kg 5-FU intravenously on Day 0, vehicle or VTP194310 orally by gavage at 3 mg/kg/day on Days 2 to 4, and/or subcutaneously with PEG-G-CSF at 10 μg/kg on Days 5, 6, or 7 according to the regimens listed in the table. The mean numbers of total white blood cells (WBC), neutrophils, lymphocytes, red blood cells (RBC) and platelets and standard error (SE) of data obtained for each treated group are shown in FIG. 6.
# [4] = 1 mg/kg oral at days −4 to −1 and at days 0 to 3
# [5] = day 8, 1 mg/kg oral at days −4 to −1 and at days 0 to 3, CPM day 0
# [6] = 2 μM incorporated into the agar
# [7] = 50 μl of 2 μM in agar-well-diffusion assay
smiles,measurement,setting,value
"CCc1ccc(C2=CC(C)(C)Sc3ccc(C#Cc4ccc(C(=O)O)cc4)cc32)cc1 [VTP 194310, 4-[[4-(4-ethylphenyl)-2,2-dimethyl-(2H)-thiochromen-6-yl]-ethynyl]-benzoic acid]",Ki,RARγ,5 nM
same,activity in transactivation assays,RAR; agonist activity,no activity
same,gene transcriptional activity induced by ATRA and other RAR agonists,RAR; antagonism,blocks the gene transcriptional activity
same,numbers of leukocytes and neutrophils generated,[1]; 1 mg/kg oral at days 4 to 7,"improved the numbers of leukocytes and neutrophils generated, but to an extent that was considerably less"
same,earliest day with significant differences in recovery,[1]; [4],5 day post-CPM
same,rise of leukocyte and neutrophil counts compared to control leukopenic mice,[1]; [4],rose quicker
same,leukocyte recovery,"[1]; CPM 200 mg/kg i.p., 1 mg/kg oral gavage",improved leukocyte recovery
same,leukocyte counts in blood versus mice treated with CPM alone,[1]; [5],~3 fold
same,neutrophil counts in blood versus mice treated with CPM alone,[1]; [5],~3 fold
same,lymphocyte counts,"[1]; day 8, dosed days 0 to 3",4.49±0.52 ×10^3/μl
same,lymphocyte counts,"[1]; day 8, dosed days −4 to −1",4.53±0.39 ×10^3/μl
same,number of lymphocytes in blood compared to control leukopenic mice and Peg-r-metHuG-CSF mice,[1]; dosed days −4 to −1 and days 0 to 3,increased number of lymphocytes
same,absolute number of immature granulocytes (Gr-1low/CD11b+ve) in the spleen,[2]; day 7,0.93±0.02 ×10^7
same,absolute number of Gr-1+ve/CD11b+ve cells in the spleen,[2]; days 6 and 7,significantly increased
same,immature granulocytes (Gr-1low/CD11b+ve) in the spleen,[2]; days 6 and 7,elevated
same,"neutrophil, and lymphocyte counts compared to control recovering mice","[2]; days 6 to 8, gavaged days −1 to 2",significantly elevated
same,spleen weight compared to controls,"[2]; days 7 and 8, gavaged days −1 to 2",increased
same,Gr-1+ve/CD11b+ve cells in the bone marrow,[2]; gavaged days −1 to 2,increased prevalence
same,growth rate in liquid culture,S. aureus EMRSA-16 252; 2 μM,neither strain demonstrated any alteration in growth rate
same,growth of bacteria on agar,S. aureus EMRSA-16 252; [6],not inhibited
same,growth of bacteria on agar,S. aureus EMRSA-16 252; [7],not inhibited
same,growth rate in liquid culture,S. aureus MSSA 476; 2 μM,neither strain demonstrated any alteration in growth rate
same,growth of bacteria on agar,S. aureus MSSA 476; [6],not inhibited
same,growth of bacteria on agar,S. aureus MSSA 476; [7],not inhibited
same,effectiveness in enhancing neutrophil recovery compared to PEG-G-CSF,"[3]; 3 mg/kg/day Days 2 to 4 vs PEG-G-CSF 10 μg/kg Days 5, 6, or 7",more effective than PEG-G-CSF
same,recovery of neutrophils relative to control,"[3]; monotherapy, 5-FU 150 mg/kg i.v. Day 0, VTP 194310 3 mg/kg/day oral Days 2 to 4, PEG-G-CSF 10 μg/kg s.c. Day 5, 6, or 7",improved the recovery of neutrophils
